Values after ≈ are worked out from the molar mass of the structure shown. Marks after values point to notes of the source that are not given here.

The subject of one data set is S. epidermidis UC-20207. Briefly: Microtiter-plate adherence assay on polystyrene. The format is cell-based. The following applies: for Adherence Mean OD550: S. epidermidis UC-20207, 18 h; for inhibition at 0.5 µg/mL / inhibition at 1 µg/mL / inhibition at 2 µg/mL: Staphylococcus epidermidis, UC20207, 18 h, read-out: Adherence % Inhibition. The procedure: (§1) Briefly, the inoculum was established by the direct colony suspension method using the Prompt™ Inoculation System (Becton Dickinson, Sparks, Md.). The bacteria suspension, which was equal to the turbidity of a 0.5 McFarland standard, was diluted in TSB to a concentration of 1×10^6 colony forming units per ml (CFU/mL). One hundred microliters of the cell suspension was added to flat-bottom polystyrene wells (Corning Costar, Corning, N.Y.) containing 100 μl of TSB, with and without drug. The final inoculum concentration per well was approximately 5×10^5 CFU/mL. The plates were incubated at 37° C. under static conditions in air. At 18 hours (h) post-infection, the optical density of bacterial growth was measured at a wavelength of 595 nm in a microtiter plate reader (Vmax; Molecular Devices, Sunnyvale, Calif.). […] Adherent “sessile” cells then were fixed with 3.7% (v/v) formaldehyde/2% (w/v) sodium acetate and stained with 0.1% (w/v) crystal violet. Excess stain was rinsed off with deionized water and the plates were air-dried for 4 h. The optical density of bacterial adherence was determined at a wavelength of 550 nm. […] To compensate for background absorbance, optical density readings from wells treated with sterile medium, fixative and stain as described above were averaged and then subtracted from all test and control wells. Relative inhibition of adherence or growth was expressed by the following equation: (OD of control well−OD of treated well/OD of control well)×100, where OD is the mean optical density of six replicate wells from two separate experiments (three replicates per experiment). Control was defined as infected, drug-free cultures.
(§2) The primary efficacy variable in this study was the measurement of adherent bacterial cells to polystyrene after 18 h of growth. To determine whether statistically significant differences existed between treatment groups (MIC, ½ MIC, and ¼ MIC) compared with the infected-nontreated controls, the Kruskal-Wallis one-way analysis of variance (ANOVA) was applied for each clinical strain. Statistical significance was defined as p-values ≦0.05. An asterisk (*) was placed by all test values less than or equal to the specified significance level.

The next data set relates to S. epidermidis RP62A. Description: Microtiter-plate adherence assay on polystyrene. Particulars: 18 h; for Adherence Mean OD550: S. epidermidis RP62A; for inhibition at 0.5 µg/mL / inhibition at 1 µg/mL / inhibition at 2 µg/mL: Staphylococcus epidermidis, RP62A, read-out: Adherence % Inhibition. The format is cell-based. On the procedure: as §1, §2
In a further data set the test system is bacterial adherence. The following applies: subinhibitory concentrations; other investigators; cited from earlier work.
Another data set relates to S. aureus UC-20206. Description: Determination of minimum inhibitory concentration (microdilution). It counts as cell-based. Particulars: Staphylococcus aureus, UC20206, 18 h. In general terms: Dilution methods test growth across graded concentrations, often in twofold steps.
The nature of data set [1]: Resistance to thermal decomposition. The format is physicochemical. From the text: The medical device can be, for example, a suture, orthopedic appliance, stent, catheter, guidewire, shunt (e.g., hemodialysis shunt or cerebrospinal shunt), prosthesis (e.g., prosthetic heart valve or prosthetic joint), cardiac pacemaker, neuronal stimulator, or vascular graft. The medical device can be made of biomaterials (i.e., biologically-compatible materials known to those skilled in the art, such as metal, polymeric, or ceramic materials). The antimicrobial agent can be incorporated into the medical device according to methods known to those skilled in the art, such as by immersing the medical device in a solution (e.g., an aqueous solution) containing the antimicrobial agent, or, for example, by methods described in one of the following references: U.S. Pat. No. 3,987,797; U.S. Pat. No. 4,563,485; U.S. Pat. No. 4,875,479; U.S. Pat. No. 4,946,870; U.S. Pat. No. 5,306,289; U.S. Pat. No. 5,584,877; U.S. Pat. No. 5,607,685; U.S. Pat. No. 5,788,979; U.S. Pat. No. 6,143,037; U.S. Pat. No. 6,238,687; WO00/56283; and WO 01/28601, the disclosures of which are incorporated herein by reference. The medical device can include a polymeric material, and the polymeric material can be co-extruded with the antibacterial agent. […]

The next data set concerns S. aureus UC-20205. Description: Determination of minimum inhibitory concentration (microdilution). The format is cell-based. Particulars: Staphylococcus aureus, UC20205, 18 h.

As usually defined, the inhibition is the share of the control response that was lost under treatment. With `CN[C@H](CC(C)C)C(=O)N[C@H]1C(=O)N[C@@H](CC(N)=O)C(=O)N[C@H]2C(=O)N[C@H]3C(=O)N[C@H](C(=O)N[C@H](C(=O)O)c4cc(O)cc(O)c4-c4cc3ccc4O)[C@H](O)c3ccc(c(Cl)c3)Oc3cc2cc(c3O[C@@H]2O[C@H](CO)[C@@H](O)[C@H](O)[C@H]2O[C@H]2C[C@](C)(N)[C@H](O)[C@H](C)O2)Oc2ccc(cc2Cl)[C@H]1O` [Vancomycin], the “Adherence Mean OD550” value in the data set on S. epidermidis UC-20207 (drug 0.5 μg/ml) is 2.177 ± 0.424; in the data set on S. epidermidis UC-20207 (drug 2.0 μg/ml (MIC)), 0.001 ± 0.002*; in the data set on S. epidermidis RP62A (drug 1.0 μg/ml) it was 1.728 ± 0.952; in the data set on S. epidermidis RP62A (drug 2.0 μg/ml (MIC)), 0.000 ± 0.002*. The inhibition at 0.5 µg/mL in the data set on S. epidermidis UC-20207 and in the data set on S. epidermidis RP62A was 0% each time. Moreover, the inhibition at 1 µg/mL in the data set on S. epidermidis UC-20207 came out at 0%; with S. epidermidis RP62A, 36.6%. For the same molecule, the inhibition at 2 µg/mL with S. epidermidis UC-20207 and in the data set with S. epidermidis RP62A was 100% throughout. Also, in the data set with bacterial adherence, the “activity against bacterial adherence” value is “minimal or no activity against bacterial adherence”.

The term MIC denotes the lowest concentration that inhibits growth of the organism. Low readings indicate greater potency, high ones weaker potency. With `CC(=O)NC[C@H]1CN(c2ccc(N3CCOCC3)c(F)c2)C(=O)O1` [Linezolid, (S)-N-[[3-[3-fluoro-4-(4-morpholinyl)phenyl]-2-oxo-5-oxazolidinyl]methyl]acetamide], the MIC with S. aureus UC-20206 is 4 µg/mL (≈ 11.9 µM); in the data set on S. aureus UC-20205, 2 µg/mL (≈ 5.93 µM). Also, the “temperature up to which resistant to thermal decomposition” value in data set [1] is “at least 121 °C”. In addition, the “Adherence Mean OD550” value in the data set with S. epidermidis UC-20207 (drug 0.5 μg/ml) is on record as 0.513 ± 0.227*; in the data set with S. epidermidis UC-20207 (drug 1.0 μg/ml), 0.007 ± 0.002*; in the data set on S. epidermidis UC-20207 (drug 2.0 μg/ml (MIC)), 0.010 ± 0.005*; in the data set on S. epidermidis RP62A (drug 0.5 μg/ml), 0.125 ± 0.133*; in the data set with S. epidermidis RP62A (drug 1.0 μg/ml), 0.002 ± 0.002*; in the data set on S. epidermidis RP62A (drug 2.0 μg/ml (MIC)) it was 0.001 ± 0.001*. Moreover, the inhibition at 0.5 µg/mL came out at 76.9% with S. epidermidis UC-20207 and 95.5% with S. epidermidis RP62A. Also, the inhibition at 1 µg/mL was determined as 99.7% with S. epidermidis UC-20207 and 99.9% in the data set with S. epidermidis RP62A. The values for the inhibition at 2 µg/mL in the data set with S. epidermidis UC-20207 and with S. epidermidis RP62A were 99.5% and 100%, respectively.

The values above are taken from US7322965B2, “Infection-resistant medical devices” (priority 2002, dated 2008).
